Reference: ChEMBL document CHEMBL5579818, “Identification of 3-(9H-carbazol-9-yl)-2-(1,3-dioxoisoindolin-2-yl)propanoic acids as promising DNMT1 inhibitors” (Eur J Med Chem, 2024)
Calls of active or inactive are those of the source. No cut-off for these calls is given here.

What was measured:
[1] = molecular target: T1, DNA (cytosine-5)-methyltransferase 1 (Homo sapiens, UniProt P26358); assay: Inhibition of DNMT1 (unknown origin) using semi-methylated DNA substrate preincubated for 15 mins followed by substrate and [3H-SAM] addition and measured after 60 mins by microbeta scintillation counting assay
T1 sequence (P26358 whole entry): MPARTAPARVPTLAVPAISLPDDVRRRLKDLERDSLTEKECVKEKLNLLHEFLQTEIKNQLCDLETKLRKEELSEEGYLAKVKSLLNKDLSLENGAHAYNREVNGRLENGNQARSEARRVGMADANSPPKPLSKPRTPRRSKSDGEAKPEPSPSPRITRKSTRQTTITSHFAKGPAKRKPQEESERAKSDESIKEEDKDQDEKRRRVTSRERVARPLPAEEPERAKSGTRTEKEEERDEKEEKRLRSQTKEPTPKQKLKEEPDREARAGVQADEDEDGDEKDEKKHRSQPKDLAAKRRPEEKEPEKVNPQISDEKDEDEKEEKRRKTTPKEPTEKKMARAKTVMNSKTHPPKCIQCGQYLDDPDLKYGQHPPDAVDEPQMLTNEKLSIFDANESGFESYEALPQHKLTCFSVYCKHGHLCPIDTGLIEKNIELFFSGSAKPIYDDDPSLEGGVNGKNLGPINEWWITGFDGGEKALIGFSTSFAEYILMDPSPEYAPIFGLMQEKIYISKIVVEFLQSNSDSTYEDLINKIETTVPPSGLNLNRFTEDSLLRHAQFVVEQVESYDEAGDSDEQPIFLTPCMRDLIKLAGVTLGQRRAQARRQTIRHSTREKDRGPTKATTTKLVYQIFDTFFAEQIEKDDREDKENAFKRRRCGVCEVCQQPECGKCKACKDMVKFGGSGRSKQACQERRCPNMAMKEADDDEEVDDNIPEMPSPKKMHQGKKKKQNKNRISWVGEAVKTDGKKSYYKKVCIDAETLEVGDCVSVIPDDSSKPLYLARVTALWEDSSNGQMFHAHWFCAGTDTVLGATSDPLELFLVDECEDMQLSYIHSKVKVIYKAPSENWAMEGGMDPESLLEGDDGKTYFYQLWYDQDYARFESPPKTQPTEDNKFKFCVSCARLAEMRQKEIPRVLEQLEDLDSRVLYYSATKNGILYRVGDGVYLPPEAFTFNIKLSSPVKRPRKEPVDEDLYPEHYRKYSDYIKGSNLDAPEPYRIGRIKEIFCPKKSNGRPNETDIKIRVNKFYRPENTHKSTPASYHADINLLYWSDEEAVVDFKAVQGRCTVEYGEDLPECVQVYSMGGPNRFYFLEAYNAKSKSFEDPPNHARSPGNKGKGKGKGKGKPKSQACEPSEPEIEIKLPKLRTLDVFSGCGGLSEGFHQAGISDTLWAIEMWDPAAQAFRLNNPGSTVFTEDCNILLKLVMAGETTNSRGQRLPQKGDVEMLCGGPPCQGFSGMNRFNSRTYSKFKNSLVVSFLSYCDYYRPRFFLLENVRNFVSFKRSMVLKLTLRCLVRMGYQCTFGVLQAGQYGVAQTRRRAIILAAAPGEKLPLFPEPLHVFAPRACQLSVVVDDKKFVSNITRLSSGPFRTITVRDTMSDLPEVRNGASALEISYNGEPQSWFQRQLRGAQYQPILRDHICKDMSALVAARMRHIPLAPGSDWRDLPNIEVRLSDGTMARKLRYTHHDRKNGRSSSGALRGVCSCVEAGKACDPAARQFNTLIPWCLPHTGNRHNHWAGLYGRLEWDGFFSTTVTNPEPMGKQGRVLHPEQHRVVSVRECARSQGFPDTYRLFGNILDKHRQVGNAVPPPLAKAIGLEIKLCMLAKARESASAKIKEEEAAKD

HeLa [2] = assay: Antiproliferative activity against human HeLa cells at 100 uM incubated for 48 hrs by MTT assay; type: functional
A2780 [3] = assay: Antiproliferative activity against human A2780 cells at 100 uM incubated for 48 hrs by MTT assay; type: functional
[4] = molecular target: T1, DNA (cytosine-5)-methyltransferase 1; assay: Inhibition of DNMT1 (unknown origin) at 250 uM using semi-methylated DNA substrate preincubated for 15 mins followed by substrate and [3H-SAM] addition and measured after 60 mins by microbeta scintillation counting assay relative to control; conditions: time 75.0 min
SiHa [5] = assay: Antiproliferative activity against human SiHa cells at 100 uM incubated for 48 hrs by MTT assay; type: functional
K562 [6] = assay: Antiproliferative activity against human K562 cells at 100 uM incubated for 48 hrs by MTT assay; type: functional
[7] = molecular target: T1, DNA (cytosine-5)-methyltransferase 1; assay: Binding affinity to human DNMT1 expressed in Escherichia coli assessed as response unit at 10 uM by SPR analysis
K562 [8] = assay: Upregulation of TNFR-1 expression in human K562 cells; type: functional, cell-based
[9] = molecular target: T1, DNA (cytosine-5)-methyltransferase 1; assay: Binding affinity to human DNMT1 expressed in Escherichia coli assessed as equilibrium dissociation constant by SPR analysis
SiHa [10] = assay: Antiproliferative activity against human SiHa cells incubated for 48 hrs by MTT assay; type: functional, cell-based
K562 [11] = assay: Upregulation of CDKN1A/P21 expression in human K562 cells; type: functional, cell-based
K562 [12] = assay: Induction of cell cycle arrest in human K562 cells assessed as G0-G1 phase cells at 20 uM incubated for 48 hrs by PI staining based flow cytometry assay (reference value: 33.58 to 35.82%); type: functional
K562 [13] = assay: Induction of apoptosis in human K562 cells assessed as necrotic cells at 40 uM incubated for 48 hrs by Annexin-V/PI staining based flow cytometry assay (reference value: 0.34%); type: functional
K562 [14] = assay: Induction of cell cycle arrest in human K562 cells assessed as S phase cells at 40 uM incubated for 48 hrs by PI staining based flow cytometry assay (reference value: 24.10 to 26.83%); type: functional
A2780 [15] = assay: Antiproliferative activity against human A2780 cells incubated for 48 hrs by MTT assay; type: functional, cell-based; conditions: A2780, 48 h
HeLa [16] = assay: Antiproliferative activity against human HeLa cells incubated for 48 hrs by MTT assay; type: functional, cell-based
K562 [17] = assay: Induction of apoptosis in human K562 cells assessed as late apoptotic cells at 20 uM incubated for 48 hrs by Annexin-V/PI staining based flow cytometry assay (reference value: 3.73%); type: functional
K562 [18] = assay: Induction of apoptosis in human K562 cells assessed as viable cells at 60 uM incubated for 48 hrs by Annexin-V/PI staining based flow cytometry assay (reference value: 92.12%); type: functional; conditions: read-out: Activity
K562 [19] = assay: Induction of apoptosis in human K562 cells assessed as early apoptotic cells at 20 uM incubated for 48 hrs by Annexin-V/PI staining based flow cytometry assay (reference value: 3.18%); type: functional
K562 [20] = assay: Induction of cell cycle arrest in human K562 cells assessed as S phase cells at 20 uM incubated for 48 hrs by PI staining based flow cytometry assay (reference value: 24.10 to 26.83%); type: functional
K562 [21] = assay: Induction of apoptosis in human K562 cells assessed as late apoptotic cells at 40 uM incubated for 48 hrs by Annexin-V/PI staining based flow cytometry assay (reference value: 3.73%); type: functional
K562 [22] = assay: Induction of cell cycle arrest in human K562 cells assessed as G0-G1 phase cells at 60 uM incubated for 48 hrs by PI staining based flow cytometry assay (reference value: 33.58 to 35.82%); type: functional
K562 [23] = assay: Induction of apoptosis in human K562 cells assessed as early apoptotic cells at 60 uM incubated for 48 hrs by Annexin-V/PI staining based flow cytometry assay (reference value: 3.18%); type: functional
K562 [24] = assay: Induction of apoptosis in human K562 cells assessed as necrotic cells at 20 uM incubated for 48 hrs by Annexin-V/PI staining based flow cytometry assay (reference value: 0.34%); type: functional
K562 [25] = assay: Induction of apoptosis in human K562 cells assessed as late apoptotic cells at 60 uM incubated for 48 hrs by Annexin-V/PI staining based flow cytometry assay (reference value: 3.73%); type: functional
K562 [26] = assay: Induction of cell cycle arrest in human K562 cells assessed as G0-G1 phase cells at 40 uM incubated for 48 hrs by PI staining based flow cytometry assay (reference value: 33.58 to 35.82%); type: functional
K562 [27] = assay: Induction of apoptosis in human K562 cells assessed as early apoptotic cells at 40 uM incubated for 48 hrs by Annexin-V/PI staining based flow cytometry assay (reference value: 3.18%); type: functional
K562 [28] = assay: Induction of cell cycle arrest in human K562 cells assessed as G2/M phase cells at 60 uM incubated for 48 hrs by PI staining based flow cytometry assay (reference value: 37.35 to 45.32%); type: functional
K562 [29] = assay: Induction of cell cycle arrest in human K562 cells assessed as G2/M phase cells at 40 uM incubated for 48 hrs by PI staining based flow cytometry assay (reference value: 37.35 to 45.32%); type: functional
K562 [30] = assay: Induction of cell cycle arrest in human K562 cells assessed as G2/M phase cells at 20 uM incubated for 48 hrs by PI staining based flow cytometry assay (reference value: 37.35 to 45.32%); type: functional
K562 [31] = assay: Induction of apoptosis in human K562 cells assessed as viable cells at 20 uM incubated for 48 hrs by Annexin-V/PI staining based flow cytometry assay (reference value: 92.12%); type: functional; conditions: read-out: Activity
K562 [32] = assay: Antiproliferative activity against human K562 cells incubated for 48 hrs by MTT assay; type: functional, cell-based; conditions: K562, 48 h
K562 [33] = assay: Induction of cell cycle arrest in human K562 cells assessed as S phase cells at 60 uM incubated for 48 hrs by PI staining based flow cytometry assay (reference value: 24.10 to 26.83%); type: functional
K562 [34] = assay: Upregulation of TRAIL-R2/Dr5 expression in human K562 cells; type: functional, cell-based
K562 [35] = assay: Induction of apoptosis in human K562 cells assessed as viable cells at 40 uM incubated for 48 hrs by Annexin-V/PI staining based flow cytometry assay (reference value: 92.12%); type: functional; conditions: read-out: Activity
K562 [36] = assay: Induction of apoptosis in human K562 cells assessed as necrotic cells at 60 uM incubated for 48 hrs by Annexin-V/PI staining based flow cytometry assay (reference value: 0.34%); type: functional

O=C(O)C(Cn1c2ccc(I)cc2c2cc(I)ccc21)N1C(=O)c2ccccc2C1=O (stereo in doubt; 7o-2)
IC50 [1]: 43 µM

O=C(O)C(Cn1c2ccccc2c2cc(I)ccc21)N1C(=O)c2ccccc2C1=O (racemic)
Activity (HeLa [2]): <5% | Activity (A2780 [3]): <5% | inhibition [4]: < 50% | Activity (SiHa [5]): <5% | Activity (K562 [6]): <5%

O=C(O)C(Cn1c2cc(Br)ccc2c2ccc(Br)cc21)N1C(=O)c2ccccc2C1=O (racemic)
Activity [7]: Active | inhibition [4]: > 75%

O=C(O)[C@H](Cn1c2ccc(Cl)cc2c2cc(Cl)cc(Cl)c21)N1C(=O)c2ccccc2C1=O
Activity (K562 [8]): Active | Kd [9]: 0.183 µM | IC50 (SiHa [10]): 58.6 µM | Activity (K562 [11]): Active | Activity (K562 [12]): 35.18% | Activity (K562 [13]): 0.29% | Activity (K562 [14]): 21.62% | IC50 (A2780 [15]): 78.9 µM | IC50 (HeLa [16]): 96.8 µM | Activity (K562 [17]): 3.16% | viability at 60 µM (K562 [18]): 16.7% | Activity (K562 [19]): 3.9% | Activity (K562 [20]): 24.1% | Activity (K562 [21]): 4.25% | Activity (K562 [22]): 61.74% | Activity (K562 [23]): 4.28% | Activity (K562 [24]): 0.04% | Activity (K562 [25]): 27.24% | Activity (K562 [26]): 50.95% | Activity (K562 [27]): 1.75% | Activity (K562 [28]): 20.78% | Activity (K562 [29]): 27.43% | Activity (K562 [30]): 33% | viability at 20 µM (K562 [31]): 92.9% | IC50 (K562 [32]): 43.9 µM | Activity (K562 [33]): 17.4% | Activity (K562 [34]): Active | viability at 40 µM (K562 [35]): 93.7% | Activity (K562 [36]): 1.74% | IC50 [1]: 40 µM

O=C(O)C(Cn1c2ccccc2c2cc(OCC3CO3)ccc21)N1C(=O)c2ccccc2C1=O (racemic)
Activity (HeLa [2]): <5% | Activity (A2780 [3]): <5% | inhibition [4]: < 50% | Activity (SiHa [5]): <5% | Activity (K562 [6]): <5%
